Measurements taken from publication PMC4354951 (European journal of medicinal chemistry, 2008).
Where “and” joins values, the source holds several entries; their conditions need not be identical. Equal values may be shown once.

Legend:
human NPP1 = target: T1, human NPP1 (Homo sapiens, UniProt P22413); assay: Hydrolysis by NPP1; type: biochemical; conditions: 100 μM substrate; relative to pnp-TMP hydrolysis (100%)
T1 sequence (P22413 1-925): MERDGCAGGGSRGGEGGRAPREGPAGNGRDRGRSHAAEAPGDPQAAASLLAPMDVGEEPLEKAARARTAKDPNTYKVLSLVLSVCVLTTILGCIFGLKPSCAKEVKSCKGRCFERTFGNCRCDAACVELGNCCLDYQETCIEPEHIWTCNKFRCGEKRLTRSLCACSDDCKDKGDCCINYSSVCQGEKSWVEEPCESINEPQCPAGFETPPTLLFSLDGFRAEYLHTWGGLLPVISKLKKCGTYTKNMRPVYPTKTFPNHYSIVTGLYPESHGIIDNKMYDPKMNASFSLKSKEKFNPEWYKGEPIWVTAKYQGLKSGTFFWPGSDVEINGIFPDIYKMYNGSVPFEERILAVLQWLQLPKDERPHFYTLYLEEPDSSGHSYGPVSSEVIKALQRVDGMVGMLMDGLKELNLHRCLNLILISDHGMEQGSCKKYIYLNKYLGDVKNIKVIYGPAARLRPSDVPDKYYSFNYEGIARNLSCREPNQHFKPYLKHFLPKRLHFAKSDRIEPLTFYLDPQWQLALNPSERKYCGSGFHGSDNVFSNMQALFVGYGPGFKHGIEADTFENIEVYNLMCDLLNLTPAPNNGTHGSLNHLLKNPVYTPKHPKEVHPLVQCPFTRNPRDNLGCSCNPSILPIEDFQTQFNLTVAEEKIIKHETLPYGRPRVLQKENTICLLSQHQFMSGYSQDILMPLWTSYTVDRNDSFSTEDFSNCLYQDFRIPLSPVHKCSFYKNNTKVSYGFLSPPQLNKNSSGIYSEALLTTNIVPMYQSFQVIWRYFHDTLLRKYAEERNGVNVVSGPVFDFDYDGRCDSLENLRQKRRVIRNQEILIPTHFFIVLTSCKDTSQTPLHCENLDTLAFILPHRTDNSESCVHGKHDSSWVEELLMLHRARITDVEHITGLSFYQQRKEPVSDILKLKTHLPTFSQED

human NPP3 = target: T2, human NPP3 (Homo sapiens, UniProt O14638); assay: Hydrolysis by NPP3; type: biochemical; conditions: 100 μM substrate; relative to pnp-TMP hydrolysis (100%)
T2 sequence (O14638 1-875): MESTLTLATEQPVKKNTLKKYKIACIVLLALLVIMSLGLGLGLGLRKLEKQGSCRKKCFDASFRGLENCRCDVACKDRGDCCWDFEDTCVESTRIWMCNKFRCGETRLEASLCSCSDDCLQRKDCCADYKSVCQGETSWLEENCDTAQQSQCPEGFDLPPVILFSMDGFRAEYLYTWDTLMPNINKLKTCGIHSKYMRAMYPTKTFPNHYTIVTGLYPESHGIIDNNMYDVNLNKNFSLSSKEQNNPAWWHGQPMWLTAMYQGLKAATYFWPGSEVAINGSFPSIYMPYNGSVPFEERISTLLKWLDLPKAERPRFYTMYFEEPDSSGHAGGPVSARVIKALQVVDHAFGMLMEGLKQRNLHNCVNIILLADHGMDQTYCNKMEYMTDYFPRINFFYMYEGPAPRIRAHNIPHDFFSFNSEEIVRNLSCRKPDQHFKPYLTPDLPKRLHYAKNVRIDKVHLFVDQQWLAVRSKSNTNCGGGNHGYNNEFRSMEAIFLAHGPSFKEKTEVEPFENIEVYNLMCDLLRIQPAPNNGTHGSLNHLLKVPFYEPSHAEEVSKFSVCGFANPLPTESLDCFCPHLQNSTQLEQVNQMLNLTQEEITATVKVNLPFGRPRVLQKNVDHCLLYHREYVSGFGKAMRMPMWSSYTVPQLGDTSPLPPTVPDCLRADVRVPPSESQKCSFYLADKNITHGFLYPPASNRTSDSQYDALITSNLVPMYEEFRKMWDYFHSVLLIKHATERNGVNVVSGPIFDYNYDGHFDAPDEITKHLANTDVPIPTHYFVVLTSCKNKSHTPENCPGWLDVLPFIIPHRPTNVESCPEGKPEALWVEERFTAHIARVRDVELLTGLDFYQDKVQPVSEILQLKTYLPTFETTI

[1] = Chemical hydrolysis under gastric juice-like conditions; type: physicochemical
[2] = Stability in human blood serum, Method B; conditions: Method B; 37 °C, up to 144 h

Row | Compound | Relative activity of NPP1 (human NPP1) | Relative activity of NPP3 (human NPP3) | fraction degraded ([1]; 0.2 M HCl/KCl pH 1.4, 37 °C, after 19 h) | t1/2 of acidic hydrolysis ([1]; KCl/HCl buffer pH 1.4, 37 °C, 31P NMR (2) or HPLC-MS (3B, 4B)) | resistance to enzymatic hydrolysis in human blood serum [2]
1 | [BH3-][P+](O)(OC[C@H]1O[C@@H](n2cnc3c(N)ncnc32)[C@H](O)[C@@H]1O)OP(=O)(O)CP(=O)(O)O (single isomer, unassigned) [3A, Adenosine-5′-O-(α-boranotriphosphate)-β,γ-CH2] | 0% | 0% |  |  | 
2 | [BH3-][P+](O)(OC[C@H]1O[C@@H](n2cnc3c(N)ncnc32)[C@H](O)[C@@H]1O)OP(=O)(O)CP(=O)(O)O (single isomer, unassigned) [3B, Adenosine-5′-O-(α-boranotriphosphate)-β,γ-CH2] | 4.0 ± 0.12% | 3.0 ± 0.05% | 50% | 19 h | 
3 | [BH3-][P+](O)(OC[C@H]1O[C@@H](n2cnc3c(N)nc(SC)nc32)[C@H](O)[C@@H]1O)OP(=O)(O)CP(=O)(O)O (single isomer, unassigned) [4A, 2-MeS–adenosine-5′-O-(α-boranotriphosphate)-β,γ-CH2] | 0% | 10% and 9.9 ± 0.5% |  |  | completely resistant to enzymatic hydrolysis for at least 6 days
